The record followed here is US20070155764A1, “NOVEL SUBSTITUTED PYRIMIDINYLOXY UREAS USEFUL AS INHIBITORS OF PROTEIN KINASES” (KALYPSYS, INC., priority 2005, published 2007).

What all share (format): biochemical
The target in assay [1] is T1, human B-Raf protein kinase (Homo sapiens, UniProt P15056).
T1 construct: GST (N); purchased Upstate Inc. 14-530 (B-Raf); 14-420 (Mek1)
The assay is described as follows: In vitro B-Raf/Mek1 composite kinase assay. The settings on record: recombinant GST-tagged human B-Raf (Δ1-415) with inactive Mek1, 2 μM ATP. An outline of the steps:
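Luminescent ATP-depletion assay using recombinant N-terminal GST-tagged human B-Raf (Δ1-415, 1 ng/well) in MOPS pH 7.2 buffer with 10 mM MgCl2. Compounds were preincubated 15 min at about 22° C, then the reaction ran 2 h before PKLight readout. Efficacy is expressed as percentage of positive-control (Bay 43-9006) activity.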

In another assay the target is T2, PDGFRβ kinase (Homo sapiens, UniProt P09619).
T2 construct: purchased Invitrogen Inc. P3082
T2 sequence (P09619 33-1106): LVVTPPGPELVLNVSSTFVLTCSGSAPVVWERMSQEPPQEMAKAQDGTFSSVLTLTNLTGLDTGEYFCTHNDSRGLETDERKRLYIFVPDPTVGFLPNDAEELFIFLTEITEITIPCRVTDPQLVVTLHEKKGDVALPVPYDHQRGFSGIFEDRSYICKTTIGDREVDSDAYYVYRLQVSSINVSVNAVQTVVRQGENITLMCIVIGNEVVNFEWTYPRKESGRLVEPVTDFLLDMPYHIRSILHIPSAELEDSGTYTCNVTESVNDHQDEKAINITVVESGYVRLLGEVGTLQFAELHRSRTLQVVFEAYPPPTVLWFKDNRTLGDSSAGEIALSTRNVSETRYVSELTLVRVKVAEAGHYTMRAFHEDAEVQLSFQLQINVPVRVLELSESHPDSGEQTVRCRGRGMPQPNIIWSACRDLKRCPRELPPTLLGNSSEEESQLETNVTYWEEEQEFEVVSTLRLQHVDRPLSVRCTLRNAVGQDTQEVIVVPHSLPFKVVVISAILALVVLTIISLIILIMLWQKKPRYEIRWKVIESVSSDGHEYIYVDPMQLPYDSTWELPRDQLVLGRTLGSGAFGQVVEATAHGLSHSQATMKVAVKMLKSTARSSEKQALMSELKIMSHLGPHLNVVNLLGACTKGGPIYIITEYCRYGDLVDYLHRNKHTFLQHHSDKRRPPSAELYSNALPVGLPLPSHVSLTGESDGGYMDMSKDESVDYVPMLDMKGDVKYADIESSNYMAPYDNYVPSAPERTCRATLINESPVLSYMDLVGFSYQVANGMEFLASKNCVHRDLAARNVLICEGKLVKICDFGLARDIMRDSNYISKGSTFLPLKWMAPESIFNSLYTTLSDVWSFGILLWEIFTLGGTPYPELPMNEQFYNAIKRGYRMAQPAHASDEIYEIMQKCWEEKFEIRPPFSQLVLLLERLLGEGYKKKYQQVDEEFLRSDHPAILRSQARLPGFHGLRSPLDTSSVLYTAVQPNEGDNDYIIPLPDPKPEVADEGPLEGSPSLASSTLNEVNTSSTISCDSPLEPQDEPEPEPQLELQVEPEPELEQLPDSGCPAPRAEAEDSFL
Briefly: In vitro PDGFRβ kinase assay. The conditions noted are these: ADP Quest assay, poly Glu:Tyr substrate, 60 μM ATP. An outline of the steps:
(§1)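 Compound was preincubated 10 min at ~22 °C with 20 ng VEGFR2 or 25 ng PDGFRβ, then poly Glu:Tyr (4:1) substrate (0.25 μg) with 60 μM ATP (in added buffer) was reacted 2 h at 30 °C. ADP Quest resorufin fluorescence was read (ex 530/em 580) after 30 min. Efficacy is expressed as percent of positive-control (Bay 43-9006) activity, with DMSO as negative control.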

The target in another assay is T3, VEGFR2 kinase (Homo sapiens, UniProt P35968).
T3 construct: purchased Invitrogen Inc PV3660
T3 sequence (P35968 20-1356): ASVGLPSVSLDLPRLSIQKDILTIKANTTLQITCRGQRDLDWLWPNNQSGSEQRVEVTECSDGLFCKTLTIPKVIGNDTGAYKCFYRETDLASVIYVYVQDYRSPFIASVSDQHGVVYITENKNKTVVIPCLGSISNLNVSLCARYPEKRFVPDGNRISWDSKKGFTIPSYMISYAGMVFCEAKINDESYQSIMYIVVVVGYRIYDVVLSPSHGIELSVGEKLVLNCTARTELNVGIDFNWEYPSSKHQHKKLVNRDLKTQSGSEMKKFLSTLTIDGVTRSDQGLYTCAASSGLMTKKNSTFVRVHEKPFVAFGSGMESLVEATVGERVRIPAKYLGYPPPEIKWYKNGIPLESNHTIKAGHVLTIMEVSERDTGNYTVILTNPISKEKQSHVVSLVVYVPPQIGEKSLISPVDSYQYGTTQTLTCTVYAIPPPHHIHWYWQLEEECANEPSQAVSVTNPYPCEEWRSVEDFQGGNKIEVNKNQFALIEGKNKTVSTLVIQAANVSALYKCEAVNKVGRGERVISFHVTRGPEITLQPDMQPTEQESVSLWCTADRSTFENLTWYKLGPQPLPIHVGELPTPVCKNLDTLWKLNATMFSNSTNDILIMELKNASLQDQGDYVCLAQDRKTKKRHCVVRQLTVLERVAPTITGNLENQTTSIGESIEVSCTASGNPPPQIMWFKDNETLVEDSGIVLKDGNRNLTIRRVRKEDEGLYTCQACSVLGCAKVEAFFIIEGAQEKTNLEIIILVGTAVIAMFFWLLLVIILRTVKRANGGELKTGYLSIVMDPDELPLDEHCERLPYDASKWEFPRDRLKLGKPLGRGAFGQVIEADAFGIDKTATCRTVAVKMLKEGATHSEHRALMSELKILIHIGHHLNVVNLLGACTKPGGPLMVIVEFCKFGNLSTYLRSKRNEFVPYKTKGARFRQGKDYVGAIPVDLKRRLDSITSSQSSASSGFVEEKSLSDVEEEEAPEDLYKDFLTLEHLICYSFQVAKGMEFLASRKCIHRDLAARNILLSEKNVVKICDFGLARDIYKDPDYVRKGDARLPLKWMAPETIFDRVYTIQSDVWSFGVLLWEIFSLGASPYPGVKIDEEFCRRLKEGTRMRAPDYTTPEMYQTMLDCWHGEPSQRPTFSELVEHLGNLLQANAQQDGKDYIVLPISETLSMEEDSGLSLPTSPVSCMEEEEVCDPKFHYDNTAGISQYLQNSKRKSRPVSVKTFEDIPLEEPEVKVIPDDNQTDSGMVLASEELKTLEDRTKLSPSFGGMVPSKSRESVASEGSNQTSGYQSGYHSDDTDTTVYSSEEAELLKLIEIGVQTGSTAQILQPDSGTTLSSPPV
Briefly: In vitro VEGFR2 kinase assay. The settings on record: ADP Quest assay, poly Glu:Tyr substrate, 60 μM ATP. An outline of the steps: as §1

Where only a bound is given, the exact number is not on record here.

T1 sequence (P15056 416-766): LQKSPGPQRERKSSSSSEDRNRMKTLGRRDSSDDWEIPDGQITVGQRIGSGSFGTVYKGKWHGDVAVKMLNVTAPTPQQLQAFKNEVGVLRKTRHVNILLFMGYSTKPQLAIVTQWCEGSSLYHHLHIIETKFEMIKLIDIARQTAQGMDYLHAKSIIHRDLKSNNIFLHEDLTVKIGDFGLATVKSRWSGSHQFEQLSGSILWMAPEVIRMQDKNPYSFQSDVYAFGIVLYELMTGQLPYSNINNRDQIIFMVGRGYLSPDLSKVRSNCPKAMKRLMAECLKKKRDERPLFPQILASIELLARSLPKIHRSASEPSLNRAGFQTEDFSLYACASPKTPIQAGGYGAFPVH

With `CNC(=O)Cn1ccc(-c2cc(Oc3cccc(NC(=O)Nc4ccc(Cl)c(C(F)(F)F)c4)c3)ncn2)n1` [Example 60, 2-(3-(6-(3-(3-(4-Chloro-3-(trifluoromethyl)phenyl)ureido)phenoxy)pyrimidin-4-yl)-1H-pyrazol-1-yl)-N-methylacetamide], the half-maximal inhibitory concentration (IC50) (in assay [1]; at PDGFRβ kinase; at VEGFR2 kinase) was at most 10 µM each time.

Take `Cn1ccc(-c2cc(Oc3cccc(NC(=O)Nc4ccc(Cl)c(C(F)(F)F)c4)c3)ncn2)n1` [Example 61, 1-(4-Chloro-3-(trifluoromethyl)phenyl)-3-(3-(6-(1-methyl-1H-pyrazol-3-yl)pyrimidin-4-yloxy)phenyl)urea]: the values for the IC50 (in assay [1]; on PDGFRβ kinase; against VEGFR2 kinase) were at most 10 µM, over 10 µM and over 10 µM, respectively.

On to `Cn1nccc1-c1cc(Oc2cccc(NC(=O)Nc3ccc(Cl)c(C(F)(F)F)c3)c2)ncn1` [Example 62, 1-(4-Chloro-3-(trifluoromethyl)phenyl)-3-(3-(6-(1-methyl-1H-pyrazol-5-yl)pyrimidin-4-yloxy)phenyl)urea], for which the half-maximal inhibitory concentration (IC50) (in assay [1]; against PDGFRβ kinase; at VEGFR2 kinase) was at most 10 µM throughout.

For the molecule `O=C(Nc1cccc(Oc2cc(-c3ccn(CCO)n3)ncn2)c1)Nc1ccc(Cl)c(C(F)(F)F)c1` [Example 63, 1-(4-Chloro-3-(trifluoromethyl)phenyl)-3-(3-(6-(1-(2-hydroxyethyl)-1H-pyrazol-3-yl)pyrimidin-4-yloxy)phenyl)urea], the IC50 (as a rule, the concentration that inhibits the measured activity by half) in assay [1] is at most 10 µM; on PDGFRβ kinase, over 10 µM; on VEGFR2 kinase, over 10 µM.

Consider `N#CCn1cc(-c2cc(Oc3cccc(NC(=O)Nc4ccc(Cl)c(C(F)(F)F)c4)c3)ncn2)cn1` [Example 64, 1-(4-Chloro-3-(trifluoromethyl)phenyl)-3-(3-(6-(1-(cyanomethyl)-1H-pyrazol-4-yl)pyrimidin-4-yloxy)phenyl)urea], for which the IC50 (in assay [1]; against PDGFRβ kinase; against VEGFR2 kinase) was at most 10 µM in each case.

As for `Cn1cc(-c2nccc(Oc3cc(NC(=O)Nc4ccc(Cl)c(C(F)(F)F)c4)c(F)cc3F)n2)cn1` [Example 67, 1-(4-Chloro-3-(trifluoromethyl)phenyl)-3-(2,4-difluoro-5-(2-(1-methyl-1H-pyrazol-4-yl)pyrimidin-4-yloxy)phenyl)urea], the IC50 (in assay [1]; at PDGFRβ kinase; on VEGFR2 kinase) was at most 10 µM in each case.

For `CC(C)n1cc(-c2cc(Oc3cccc(NC(=O)Nc4ccc(Cl)c(C(F)(F)F)c4)c3)ncn2)cn1` [Example 68, 1-(4-Chloro-3-(trifluoromethyl)phenyl)-3-(3-(6-(1-isopropyl-1H-pyrazol-4-yl)pyrimidin-4-yloxy)phenyl)urea], the half-maximal inhibitory concentration (IC50) in assay [1] is at most 10 µM; against PDGFRβ kinase, at most 10 µM; against VEGFR2 kinase it was over 10 µM.

As for `Cc1nn(C)c(C)c1-c1cc(Oc2cccc(NC(=O)Nc3ccc(Cl)c(C(F)(F)F)c3)c2)ncn1` [Example 69, 1-(4-Chloro-3-(trifluoromethyl)phenyl)-3-(3-(6-(1,3,5-trimethyl-1H-pyrazol-4-yl)pyrimidin-4-yloxy)phenyl)urea], the IC50 in assay [1] is at most 10 µM; at PDGFRβ kinase, over 10 µM; against VEGFR2 kinase it was over 10 µM.

In the case of `Cc1nn(C)c(C)c1-c1cc(Oc2ccc(NC(=O)Nc3ccc(Cl)c(C(F)(F)F)c3)cc2)ncn1` [Example 70, 1-(4-Chloro-3-(trifluoromethyl)phenyl)-3-(4-(6-(1,3,5-trimethyl-1H-pyrazol-4-yl)pyrimidin-4-yloxy)phenyl)urea], the half-maximal inhibitory concentration (IC50) in assay [1] is over 10 µM; against PDGFRβ kinase, at most 10 µM; against VEGFR2 kinase, over 10 µM.

`Cn1cc(-c2nccc(Oc3cccc(NC(=O)Nc4ccc(Cl)c(C(F)(F)F)c4)c3)n2)cn1` [Example 71, 1-(4-Chloro-3-(trifluoromethyl)phenyl)-3-(3-(2-(1-methyl-1H-pyrazol-4-yl)pyrimidin-4-yloxy)phenyl)urea]: the IC50 (in assay [1]; at PDGFRβ kinase; against VEGFR2 kinase) was at most 10 µM in each case.

In the case of `Cn1cc(-c2nccc(Nc3ccc(NC(=O)Nc4ccc(Cl)c(C(F)(F)F)c4)cc3)n2)cn1` [Example 72, 1-(4-Chloro-3-trifluoromethyl-phenyl)-3-{4-[2-(1-methyl-1H-pyrazol-4-yl)-pyrimidin-4-ylamino]-phenyl}-urea], the concentration for half-maximal inhibition (IC50) (in assay [1]; on PDGFRβ kinase; on VEGFR2 kinase) was at most 10 µM each time.

`O=C(Nc1ccc(Oc2cc(-c3nc(C(F)(F)F)c[nH]3)ncn2)cc1)Nc1ccc(Cl)c(C(F)(F)F)c1` [Example 73, 1-(4-Chloro-3-(trifluoromethyl)phenyl)-3-(4-(6-(4-(trifluoromethyl)-1H-imidazol-2-yl)pyrimidin-4-yloxy)phenyl)urea]: the results for the half-inhibitory concentration (IC50) (in assay [1]; on PDGFRβ kinase; at VEGFR2 kinase) were at most 10 µM, at most 10 µM and over 10 µM, respectively.

As for `O=C(Nc1cccc(Oc2cc(-c3nc(C(F)(F)F)c[nH]3)ncn2)c1)Nc1ccc(Cl)c(C(F)(F)F)c1` [Example 74, 1-(4-Chloro-3-(trifluoromethyl)phenyl)-3-(3-(6-(4-(trifluoromethyl)-1H-imidazol-2-yl)pyrimidin-4-yloxy)phenyl)urea], the 50% inhibitory concentration (IC50) in assay [1] was at most 10 µM; against PDGFRβ kinase it was at most 10 µM; against VEGFR2 kinase, over 10 µM.

With `COCCOc1ccc(NC(=O)Nc2cc(Oc3ccnc(-c4cnn(C)c4)n3)c(F)cc2F)cc1C(F)(F)F` [Example 75, 1-(2,4-Difluoro-5-(2-(1-methyl-1H-pyrazol-4-yl)pyrimidin-4-yloxy)phenyl)-3-(4-(2-methoxyethoxy)-3-(trifluoromethyl)phenyl)urea], the IC50 (in assay [1]; on PDGFRβ kinase; against VEGFR2 kinase) was at most 10 µM each time.

Turning to `O=C(Nc1ccc(Oc2cc(-c3cnn(CCN4CCOCC4)c3)ncn2)cc1)Nc1ccc(Cl)c(C(F)(F)F)c1` [Example 76, 1-(4-Chloro-3-(trifluoromethyl)phenyl)-3-(4-(6-(1-(2-morpholinoethyl)-1H-pyrazol-4-yl)pyrimidin-4-yloxy)phenyl)urea], the half-maximal inhibitory concentration (IC50) (in assay [1]; at PDGFRβ kinase; on VEGFR2 kinase) was at most 10 µM each time.

For `O=C(Nc1cccc(Oc2cc(-c3cnn(CCN4CCOCC4)c3)ncn2)c1)Nc1ccc(Cl)c(C(F)(F)F)c1` [Example 77, 1-(4-Chloro-3-(trifluoromethyl)phenyl)-3-(3-(6-(1-(2-morpholinoethyl)-1H-pyrazol-4-yl)pyrimidin-4-yloxy)phenyl)urea], the 50% inhibitory concentration (IC50) (in assay [1]; on PDGFRβ kinase; on VEGFR2 kinase) was at most 10 µM throughout.

As to `Cn1cc(-c2nccc(Oc3ccc(F)c(NC(=O)Nc4ccc(Cl)c(C(F)(F)F)c4)c3)n2)cn1` [Example 78, 1-(4-Chloro-3-(trifluoromethyl)phenyl)-3-(2-fluoro-5-(2-(1-methyl-1H-pyrazol-4-yl)pyrimidin-4-yloxy)phenyl)urea], the half-maximal inhibitory concentration (IC50) (in assay [1]; against PDGFRβ kinase; on VEGFR2 kinase) was at most 10 µM in each case.

For `Cn1cc(-c2nccc(Oc3cccc(NC(=O)Nc4ccc(OC(F)(F)F)cc4)c3)n2)cn1` [Example 79, 1-(3-(2-(1-Methyl-1H-pyrazol-4-yl)pyrimidin-4-yloxy)phenyl)-3-(4-(trifluoromethoxy)phenyl)urea], the concentration for half-maximal inhibition (IC50) (in assay [1]; at PDGFRβ kinase; at VEGFR2 kinase) was at most 10 µM in each case.
